According to article PMC7884711, “Identification of efficient prokaryotic cell-penetrating peptides with applications in bacterial biotechnology” (Communications Biology, 2021):

B1: Cre recombinase (No CPP): Cre recombinase without CPP, control (protein, UniProt P06956 1-343, looked up)
Recombinase cre: MSNLLTVHQNLPALPVDATSDEVRKNLMDMFRDRQAFSEHTWKMLLSVCRSWAAWCKLNNRKWFPAEPEDVRDYLLYLQARGLAVKTIQQHLGQLNMLHRRSGLPRPSDSNAVSLVMRRIRKENVDAGERAKQALAFERTDFDQVRSLMENSDRCQDIRNLAFLGIAYNTLLRIAEIARIRVKDISRTDGGRMLIHIGRTKTLVSTAGVEKALSLGVTKLVERWISVSGVADDPNNYLFCRVRKNGVAAPSATSQLSTRALEGIFEATHRLIYGAKDDSGQRYLAWSGHSARVGAARDMARAGVSIPEIMQAGGWTNVNIVMNYIRNLDSETGAMVRLLEDGD

What was measured:
E. coli DH5α cells [1] = assay: Penetration efficiency of TAMRA-labeled CPPs, chemical (CaCl2) treatment method, flow cytometry; type: cell-based, Escherichia coli; settings: TAMRA fluorescence intensity in E. coli, library screen of 98 CPPs
Source text: (§1) (Fig. 2a). […] First, we prepared electrocompetent and chemically competent cells.

HEK293 cells = settings: literature knowledge; cited from earlier work
Source text: To date, mostly CPPs have been studied and utilized in mammalian cells, but in this study, we studied CPPs in bacteria, E. coli. Thus, it would be very useful to find the similarities and differences of CPPs between prokaryotes and eukaryotes.

E. coli DH5α cells [2] = assay: Penetration efficiency of TAMRA-labeled CPPs, electroporation-based method, flow cytometry; type: cell-based, Escherichia coli; settings: library CPPs, E. coli, electroporation, Tris buffer pH 7.5, 1 h, mean of n = 3–5
Source text: as §1

E. coli DH5α cells [3] = assay: Inhibition of bacterial cell growth by CPPs (Max OD600 relative to control); type: cell-based, Escherichia coli; settings: for Max OD (%) (Figure 3f): E. coli DH5α diluted 1/1000 in LB, 5 μg TAMRA-CPP (0.1 μg/μL), OD600 monitored 18 h, max OD of treated cells / max OD of control cells
Description: E. coli DH5α cells were grown until OD600 = 1 at 37 °C with shaking at 200 rpm. […] Then, cell growth (OD600) was monitored for 18 h by using the Synergy^TM H1 hybrid multi-mode microplate reader (BioTek, Vermont, USA). As a control, we used E. coli cells that were not treated with CPPs.

Methylomonas sp. DH-1 = assay: Marker gene excision using CPP-conjugated Cre recombinase; type: cell-based; settings: Methylomonas sp. DH-1, 50 μL protein (0.05 μg/μL), electroporation, 4 mM NiCl2 selection
Description: For the marker gene excision experiment, the pIns-LKTL plasmid was transformed into Methylomonas sp. DH-1, and then the marker genes flanked with loxP sites (loxP-kan^R-tetA-loxP) were integrated into a non-coding region of the Methylomonas sp. DH-1 genome. To select correctly knocked-in cells, the transformed cells were grown on an NMS agar plate containing kanamycin (10 μg/mL) and 30% methane for 3–7 days. The knocked-in cells were harvested from the plate and washed twice with distilled water, and 50 μL of cell suspension was mixed with 50 μL of CPP-conjugated Cre recombinase (0.05 μg/μL). […] After electroporation, cells were incubated in two types of recovery buffers (20 mM Tris-HCl at pH 7.5 or NMS medium) for 3 h and then spread on NMS agar plates containing 4 mM NiCl2. The colonies grown on the NiCl2 plates were transferred to an NMS agar plate and a kanamycin-containing NMS agar plate to confirm the excision of the marker genes.

Molecule | Penetration efficiency (TAMRA FI) (E. coli DH5α cells [1]) | Efficiency as CPP in mammalian cells (HEK293 cells) | Penetration efficiency (TAMRA fluorescence in E. coli) (E. coli DH5α cells [2]) | Max OD (%) (Figure 3f) (E. coli DH5α cells [3]; replicate 1) | Max OD (%) (Figure 3f) (E. coli DH5α cells [3]; replicate 2) | Max OD (%) (Figure 3f) (E. coli DH5α cells [3]; replicate 3) | Growth rate (%) (E. coli DH5α cells [3]; E. coli growth with CPP, relative to control) | Anti-bacterial activity (E. coli DH5α cells [3]; class (Cytotoxic / Safe), cutoff of 50%) | Marker excision efficiency (%) (Methylomonas sp. DH-1; recovery in NMS buffer 3 h, replicate 1) | Marker excision efficiency (%) (Methylomonas sp. DH-1; recovery in NMS buffer 3 h, replicate 2) | Marker excision efficiency (%) (Methylomonas sp. DH-1; recovery in NMS buffer 3 h, replicate 3) | Marker excision efficiency (%) (Methylomonas sp. DH-1; recovery in Tris-Cl buffer 3 h, replicate 1) | Marker excision efficiency (%) (Methylomonas sp. DH-1; recovery in Tris-Cl buffer 3 h, replicate 2) | Marker excision efficiency (%) (Methylomonas sp. DH-1; recovery in Tris-Cl buffer 3 h, replicate 3)
KLPVM [CPP 63, TAMRA-labeled CPP of the 98-CPP library] | 26.6874 | highly efficient | low efficiency | 69.833% | 72.8601% | 66.2839% | 69.659% | Safe |  |  |  |  |  | 
B1 |  |  |  |  |  |  |  |  | 10.353% | 9.156% | 9.01% | 1.75% | 2.19% | 1.75%
